{"source": "patent US20230213527A1", "about": "“COMPOSITIONS AND METHODS FOR POLYPEPTIDE ANALYSIS” (Quantum-Si Incorporated, priority 2021, published 2023)", "key": {"PS961": {"system": "PS961", "sequence (as listed by the source)": "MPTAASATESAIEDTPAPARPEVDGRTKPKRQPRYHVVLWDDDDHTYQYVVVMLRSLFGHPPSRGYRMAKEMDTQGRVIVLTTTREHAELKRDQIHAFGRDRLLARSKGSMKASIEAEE", "assay": "Dynamic single-molecule sequencing, recognition by PS961", "assay_type": "binding, Planctomycetes", "conditions": "for RS mean PD, recognition of N-terminal leucine: tyrosine or phosphotyrosine at position 2", "experimental": "(§1) The semiconductor chip was placed in the sequencing device and a chip check was performed to test electronic circuit function and to optimize laser coupling alignment. The chip was then removed from the device socket and the chip was washed twice with 50 μL of 70% isopropanol, followed by four washes with 30 μL of wash buffer (50 mM MOPS pH 8.0, 60 mM potassium acetate, 50 mM glucose, 20 mM magnesium acetate, and surfactant mix) through a flow cell attached to the chip. A second chip check was then performed. The laser was then blocked via an integrated software-controlled shutter, peptide complex was added to a final concentration of 1-10 nM and mixed thoroughly, and the chip was incubated for 15 min. The chip was then washed six times with wash buffer, followed by addition of an imaging solution (wash buffer with 5 mM Trolox and an oxygen scavenging system). The laser was unblocked and the occupancy percentage (target 10-30%, Poisson distributed) was recorded by acquiring a photobleaching signal from a fluorophore attached to the peptide complex during 5 min of laser illumination. For NAA recognition-only assays, after peptide loading, labeled recognizer was added to a final concentration of 50 nM PS610, 100 nM PS691, or 250 nM PS961 (as indicated according to the experiment), and data was recorded for 10 hours. For dynamic sequencing assays, after peptide loading, a mixture of labeled recognizers was added to obtain final concentrations of 50 nM PS610, 100 nM PS691, and 250 nM PS961. Data was recorded for 15 min. The laser was then blocked briefly and aminopeptidases were added to the sequencing reaction via the flow cell and mixed thoroughly (final concentration 2-8 μM PhTET2 and/or 20-80 μM PhTET3, as indicated according to the experiment). The laser was then unblocked, and data was recorded for 10 hours. For all runs, 30 μL of mineral oil was added to fluid reservoirs at each port of the flow cell to prevent evaporation during the run.\n(§2) The measured signal on-chip comprises various noise components, the most dominant one being due to fluorescent emissions from diffusing recognizers in the reaction chamber. The pulse caller algorithm for a given reaction chamber starts by estimating the statistical properties of this background noise component. Once an estimate within certain error bounds has been established, the algorithm works in an online fashion observing new frames of data as they are generated. At each point in time, the algorithm maintains state indicating whether the signal is due to the background component only or a pulse from a recognizer-NAA interaction is being observed. The state transition from background to pulse is triggered using an edge detection test where the shift in signal is expected to be significant with respect to the background component's statistical distribution. The state transition from pulse to background is triggered when a small window of the most recent frames of the signal appears to conform to the background component's distribution again. The algorithm maintains an updated model of the background component as new background frames are observed. This provides robustness against drift in the signal intensity together with a feedback control loop that maintains a stable optical coupling of the laser into the chip based on any such detected drift. As detected pulses can be due to true recognizer-to-dipeptide interaction events as well as other occasional transient noise spikes, a downstream filter layer is employed to test the significance of pulse events based on their duration, intensity, and noise patterns within the context of the full timeline of the run and the entire dataset of reaction chambers.\nInitial regions are determined by performing a sliding window calculation of pulse rate along the time dimension of a series of pulses. Regions with a mean pulse rate >1 pulse/min are then subdivided according to a greedy bisection approach."}, "PS621": {"molecular_target": "T1, PS621 (Kluyveromyces lactis, UniProt O60014, E174T/N105S/N176F/R116K/S153T/V146T)", "T1 construct": "PS621; […]", "T1 sequence (O60014 other isoform, or with tags, fused parts or gaps N105S/R116K/V146T/S153T/E174T/N176F)": "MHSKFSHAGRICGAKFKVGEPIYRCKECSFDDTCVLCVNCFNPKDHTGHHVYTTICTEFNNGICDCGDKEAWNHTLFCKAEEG", "assay": "Dynamic single-molecule sequencing, recognition by PS621", "assay_type": "binding", "conditions": "unmodified arginine peptide, average of 10 sequencing reactions", "text": "PTM detection involved isolating peptides and subjecting them to a real-time single-molecule protein sequencing reaction. Proteins were first digested into peptide fragments and conjugated C-terminally to macromolecular linkers. The peptide complexes were immobilized at the bottom of nanoscale wells on a semiconductor chip, resulting in single peptide molecules with exposed N-termini ready for sequencing. During the sequencing reaction, the surface-immobilized peptides were exposed to a solution containing dye-labeled NAA recognizers that bound on and off to their cognate NAAs with characteristic kinetic properties. Aminopeptidases in solution sequentially removed individual NAAs to expose subsequent amino acids for recognition. Fluorescence lifetime, intensity, and kinetic data were collected in real time and analyzed to determine amino acid sequence and PTM content.\nThe trace-level output included distinct pulsing regions called recognition segments (RSs); each RS corresponded to a period of time between aminopeptidase cleavage events during which an NAA recognizer bound on and off to its exposed target NAA. Chemical modifications to a target NAA or to a nearby downstream amino acid can modulate recognizer affinity, resulting in a characteristic change in the average pulse duration (PD) during an RS relative to an unmodified peptide. These modifications can also influence the rate of aminopeptidase cleavage of an NAA, resulting in a characteristic change in average duration of the corresponding RS.\nSynthetic peptides corresponding to residues 69 to 76 of P38MAPKa were generated in three versions containing either arginine, ADMA, or SDMA at position 2: YRELRLLK (SEQ ID NO: 834), YRADMAELRLLK (SEQ ID NO: 835), and YRSDMAELRLLK (SEQ ID NO: 836). Each peptide was sequenced using three recognizers—PS610 (F, Y, W), PS961 (L, I, V), and PS621 (R)—and data were analyzed to identify RSs, determine the mean PD of each RS, and characterize the kinetic signature of each peptide.\nIn this example, sequencing reactions were performed using PS621 (R), PS610 (FYW), and PS961 (LIV) recognizers for 9 pairs of peptides. Each pair comprised one peptide comprising an unmodified arginine residue followed by a non-arginine amino acid (referred to as an R-X peptide) and one peptide having an identical sequence except that the unmodified arginine was modified to be ADMA (referred to as an ADMA-X peptide)."}, "PS1223": {"system": "PS1223", "sequence (as listed by the source)": "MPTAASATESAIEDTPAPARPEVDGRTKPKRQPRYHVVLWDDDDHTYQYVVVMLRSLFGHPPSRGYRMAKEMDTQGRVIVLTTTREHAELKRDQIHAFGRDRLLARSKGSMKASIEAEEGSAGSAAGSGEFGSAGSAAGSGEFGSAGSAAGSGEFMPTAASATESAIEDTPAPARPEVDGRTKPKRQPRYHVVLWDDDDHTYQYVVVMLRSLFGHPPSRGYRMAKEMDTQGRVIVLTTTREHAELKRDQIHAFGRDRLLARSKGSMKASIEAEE", "assay": "Dynamic single-molecule sequencing, recognition by PS1223", "assay_type": "binding", "experimental": "(§3) Sequencing reactions using the recognizers PS610 (FYW), PS1220 (R), and PS1223 (LIV) were performed separately for the QP706 and QP1073 peptide fragments. Each recognizer was labeled with a unique dye and/or unique number of dyes. A scatter plot of bin ratio v. pulse duration is shown for the QP706 peptide fragment in FIG. 18A and for the QP1073 peptide fragment in FIG. 18B. In the plot of FIG. 18A, three clusters corresponding to FLE, LEQ, and RFL segments are visible. […] In the plot of FIG. 18B, two clusters corresponding to FLE and LEQ segments are visible, but there is no cluster corresponding to RFL.\nIn this example, sequencing reactions were conducted for 4 pairs of unmodified and citrullinated peptides: QP1028 & QP1029, QP1030 & QP1031, QP1032 & QP1033, and QP707 & QP789. […] For the QP1028 & QP1029 and QP1030 & QP1031 pairs, sequencing reactions were conducted using the PS610 (FYW) recognizer. For the QP1032 & QP1033 and QP707 & QP789 pairs, sequencing reactions were conducted using the PS1223 (LIV) recognizer."}, "PS610": {"system": "PS610", "assay": "Dynamic single-molecule sequencing, recognition by PS610", "assay_type": "binding, A. tumefaciens", "conditions": "for RS mean PD, recognition of N-terminal phenylalanine: lysine or acetylated lysine downstream", "experimental": "as §1, with “The laser was then blocked via an integrated software-controlled shutter, peptide complex was added to a final concentration of 1-10 nM and mixed thoroughly, and the chip was incubated for 15 min.” left out, “For NAA recognition-only assays, after peptide loading, labeled recognizer was added to a final concentration of 50 nM PS610, 100 nM PS691, or 250 nM PS961 (as indicated according to the experiment), and data was recorded for 10 hours. For dynamic sequencing assays, after peptide loading, a mixture of labeled recognizers was added to obtain final concentrations of 50 nM PS610, 100 nM PS691, and 250 nM PS961. Data was recorded for 15 min.” left out\nas §2\nInitial regions are determined by performing a sliding window calculation of pulse rate along the time dimension of a series of pulses. Regions with a mean pulse rate >1 pulse/min are then subdivided according to a greedy bisection approach. Here, the pulses on the left and right of each potential split are assessed for statistically significant deviation in any of four separate pulse properties—intensity, bin ratio, pulse duration, and interpulse duration—using a Mann-Whitney U Test. To define RSs, the split point with the lowest p-value for any of the four properties is used to sub-divide the region and the process continues until no regions remain with a candidate split point with p-value <10^−5 in any comparison. In this manner, transitions from one RS to the next in a region of continuous pulsing are determined a priori on the basis of changes in fluorescence properties of pulsing kinetics."}, "PS1220": {"molecular_target": "T2, PS1220 (Kluyveromyces lactis, UniProt O60014, E169T/E174T/I162E/N105S/N176F/R116K/S153T/V146L)", "T2 construct": "PS1220; 566", "T2 sequence (O60014 with tags, fused parts or gaps N105S/R116K/V146L/S153T/I162E/E169T/E174T/N176F)": "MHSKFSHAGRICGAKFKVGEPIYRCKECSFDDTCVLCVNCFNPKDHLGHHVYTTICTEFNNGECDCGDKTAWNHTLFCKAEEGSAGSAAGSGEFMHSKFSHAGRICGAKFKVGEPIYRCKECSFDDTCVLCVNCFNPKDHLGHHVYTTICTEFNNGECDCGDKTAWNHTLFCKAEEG", "assay": "Dynamic single-molecule sequencing, recognition by PS1220", "assay_type": "binding", "conditions": "vimentin peptide fragments", "experimental": "as §3\nResults from additional sequencing reactions performed using the recognizers PS610 (FYW), PS1220 (R), and PS1223 (LIV) and the QP706 and QP1073 peptide fragments are shown in FIGS. 19A-19D and 20A-20D. Traces from the QP706 reactions are shown in FIGS. 19A-19B, and corresponding scatter plots of intensity v. bin ratio are shown in FIGS. 19C-19D. […] Traces from the QP1073 reactions are shown in FIGS. 20A-20B, and the corresponding scatter plots of intensity v. bin ratio are shown in FIGS. 20C-20D."}, "PS691": {"system": "PS691", "conditions": "tyrosine or phosphotyrosine at position 3", "protocol": "The semiconductor chip was placed in the sequencing device and a chip check was performed to test electronic circuit function and to optimize laser coupling alignment. The chip was then removed from the device socket and the chip was washed twice with 50 μL of 70% isopropanol, followed by four washes with 30 μL of wash buffer (50 mM MOPS pH 8.0, 60 mM potassium acetate, 50 mM glucose, 20 mM magnesium acetate, and surfactant mix) through a flow cell attached to the chip. A second chip check was then performed. […] The laser was unblocked and the occupancy percentage (target 10-30%, Poisson distributed) was recorded by acquiring a photobleaching signal from a fluorophore attached to the peptide complex during 5 min of laser illumination. For NAA recognition-only assays, after peptide loading, labeled recognizer was added to a final concentration of 50 nM PS610, 100 nM PS691, or 250 nM PS961 (as indicated according to the experiment), and data was recorded for 10 hours. […] Data was recorded for 15 min. […]\nThe measured signal on-chip comprises various noise components, the most dominant one being due to fluorescent emissions from diffusing recognizers in the reaction chamber. […] This provides robustness against drift in the signal intensity together with a feedback control loop that maintains a stable optical coupling of the laser into the chip based on any such detected drift. […]"}, "PS1165": {"molecular_target": "T3, PS1165", "T3 construct": "PS1165; 511", "T3 sequence (Q13490 with tags, fused parts or gaps)": "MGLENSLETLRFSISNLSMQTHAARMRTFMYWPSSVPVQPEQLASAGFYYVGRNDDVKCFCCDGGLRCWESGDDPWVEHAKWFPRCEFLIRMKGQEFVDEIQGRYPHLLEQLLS", "assay": "Dynamic single-molecule sequencing, recognition by PS1165", "assay_type": "binding", "conditions": "lysine or acetylated lysine downstream", "experimental": "Sequencing reactions using the recognizers PS691 (R), PS610 (FYW), PS961 (LIV), and PS1165 (A) were performed separately for the peptides RLYFKAYPDDD (SEQ ID NO: 825) and RLK{acetyl}FIAYPDDD (SEQ ID NO: 826) (where K{acetyl} is an acetylated lysine). Recognition of the N-terminal phenylalanine and alanine residues preceding lysine or acetyl-lysine by PS610 and PS1165, respectively, was observed, with distinct pulse durations depending on whether the peptide contained lysine (F=1.4 s, A=1.3 s; FIG. 16A) or acetylated lysine (F=1.8 s, A=2.2 s; FIG. 16B). Recognition of N-terminal phenylalanine occurred with RS mean PD of 1.4 s for FAK and 1.8 s for FAK{acetyl }. Recognition of N-terminal alanine occurred with RS mean PD of 1.3 s for AK and 2.2 s for AK{acetyl}."}}, "note": "“Also recorded” adds a separate entry of the source. Square brackets hold non-standard residues; d marks the D form. Ends that are not written are not given here. Cit = NC(=O)NCCC[C@H](N)C(=O)O"}
{"substance": "LRLAFAYPDDDK [QP707]", "values": [{"measurement": "Median PD of recognition of N-terminal leucine by PS961", "setting": "PS961; arginine or citrulline at position 2", "value": 0.43, "unit": "s"}, {"measurement": "RS R-X", "setting": "PS621; RS duration", "value": 17.3, "unit": "min"}, {"measurement": "PW of R-X", "setting": "PS621", "value": 0.47, "unit": "s"}, {"measurement": "Pulse Width", "setting": "PS1223; recognizer PS1223, recognition of the N-terminal amino acid", "value": 0.42, "unit": "s"}]}
{"substance": "VRFLEQQNK [QP706, peptide fragment of vimentin]", "values": [{"measurement": "Recognition of phenylalanine (F) residue by PS610", "setting": "PS610; vimentin peptide fragments", "value": "recognized; also recorded: recognition"}, {"measurement": "Recognition of leucine (L) residue by PS1223", "setting": "PS1223; vimentin peptide fragments", "value": "recognized; also recorded: recognition"}, {"measurement": "Recognition of arginine / citrulline residue by PS1220", "setting": "PS1220", "value": "recognized; also recorded: recognition"}]}
{"substance": "VCitFLEQQNK (V[Cit]FLEQQNK) [QP1073, citrullinated peptide fragment of vimentin]", "values": [{"measurement": "Recognition of arginine / citrulline residue by PS1220", "setting": "PS1220", "value": "did not recognize; also recorded: does not recognize"}]}
{"substance": "RLYFIAYPDDD", "values": [{"measurement": "Recognition of Y or pY by PS610 between L and F", "setting": "PS610", "value": "Y recognition"}, {"measurement": "RS mean PD, recognition of N-terminal leucine", "setting": "PS961", "value": 2.45, "unit": "s"}, {"measurement": "RS mean PD, recognition of N-terminal arginine", "setting": "PS691", "value": 0.9, "unit": "s"}]}
{"substance": "RLpYFIAYPDDD", "values": [{"measurement": "Recognition of Y or pY by PS610 between L and F", "setting": "PS610", "value": "not recognized"}, {"measurement": "RS mean PD, recognition of N-terminal leucine", "setting": "PS961", "value": 3.4, "unit": "s"}, {"measurement": "RS mean PD, recognition of N-terminal arginine", "setting": "PS691", "value": 0.45, "unit": "s"}]}
{"substance": "RLYFKAYPDDD (FAK) [peptide containing lysine]", "values": [{"measurement": "RS mean PD, recognition of N-terminal phenylalanine", "setting": "PS610", "value": 1.4, "unit": "s"}, {"measurement": "RS mean PD, recognition of N-terminal alanine", "setting": "PS1165", "value": 1.3, "unit": "s"}]}
{"substance": "RLK{acetyl}FIAYPDDD (RLK(Ac)FIAYPDDD-NH2; also: C-terminal azidolysine (general statement for all synthetic peptides)) [FAK{acetyl }, peptide containing acetylated lysine]", "values": [{"measurement": "RS mean PD, recognition of N-terminal phenylalanine", "setting": "PS610", "value": 1.8, "unit": "s"}, {"measurement": "RS mean PD, recognition of N-terminal alanine", "setting": "PS1165", "value": 2.2, "unit": "s"}]}
